Experimental data reported in US20170356005A1, “NON-VIRAL IPSCS INDUCING COMPOSITION AND KITS” (Guangzhou Biocare Biotechnology Co., Ltd, priority 2016, published 2017).
Counter-ions that a name gives are not always drawn.

System: urine-derived renal epithelial cells
Assay: AP staining of iPSC clones after induction culture (efficiency of AP positive clones)
Format: cell-based, human
Conditions: Example 5, FIG. 11-12
Method: 1. The procedure for AP staining is as follows,
a) Aspirate and remove the growth medium from the cultures to be stained when the cell culture is finished, wash the culture with 1×PBS one time; Fix the cells with 4% paraformaldehyde at room temperature for 2 min;
b) Aspirate the fixing solution, wash the culture with 1×TBST for 3 times; Balance with AP buffer at room temperature for 5 min;
c) Chromogenic reaction was performed with AP chromogenic reagent at room temperature in dark for 15 min (5-15 min, terminated when the color of clones became darker and without background, increase the reaction time appropriately if the clones were not stained). The chromogenic reagent was aspirated, cells were washed with 1×PBS for two times, covered with an appropriate amount of 1×PBS, observed and counted under a microscope.
Alkaline phosphatase (AP) is a phosphomonoesterase. The alkaline phosphatase in the cytoplasm can hydrolyze sodium naphthol phosphate to produce α-naphthol in alkaline environments. The latter reacts with a stable azo salt and presents a deep purple color, which the presence of alkaline phosphatase and the abundance of expression could be determined accordingly. Alkaline phosphatase is highly expressed in undifferentiated pluripotent stem cells, and the activity of alkaline phosphatase in the differentiated pluripotent stem cells is decreased. Therefore, whether the cells are clones of iPSCs could be determined by alkaline phosphatase staining (AP staining). And, thus the efficiency of iPSCs production can be easily judged according to the efficiency of AP positive clones.
In Example 1-2 and 4-6, the efficiency of AP positive clones was determined based on the number of cells in each group after electroporation transformation, ie the efficiency of AP positive clones=number of AP positive clones/number of passaged cells per well after electroporation in each group;
In Example 3 and 7-10, the efficiency of AP positive clones was determined based on the total number of cells after electroporation transformation, i.e. the efficiency of AP positive clones=number of AP positive clones/total number of cells after electroporation transformation.
a) Electroporation transformation: The recombinant plasmids obtained in step 1) were added into the culture of renal epithelial cells after digestion with trypsin, and then transferred into the renal epithelial cells. […]
b) Induction culture: 1-3 days after Step 1), or when the cells reached a confluence of 30% or more, the culture medium of pluripotent stem cell was used to continue induction culture. About 15-30 days after the mature of iPSCs clones, the positive clones of iPSCs were identified by AP staining, and the efficiency of AP positive clones was calculated accordingly;

Structure (SMILES) | preferable concentration (AP staining) [µM]
Cc1c[nH]c(-c2cnc(NCCNc3ccc(C#N)cn3)nc2-c2ccc(Cl)cc2Cl)n1 [CHIR-99021] | 3
O=C(NOC[C@H](O)CO)c1ccc(F)c(F)c1Nc1ccc(I)cc1F [PD0325901] | 0.5
CCCC(=O)[O-].[Na+] [sodium butyrate, Sodium Butyrate] | 250
N[C@@H]1C[C@H]1c1ccccc1 [tranylcypromine hydrochloride, Tranylcypromine hydrochloride] | 2
